Values quoted from earlier work in US5358942A, “Inhibition of protein kinase C with Cyclic phosphonate compounds” (Louisiana State University, priority 1993, dated 1994).

Tested on: carnitine palmitoyltransferase (CPT)

CCCCCCCCCCCCCCC[C@@]1(O)C[N+](C)(C)C[C@H](CC(=O)O)O1.[Br-] [Hemipalmitoyl carnitinium (HPC), Hemipalmitoyl carnitinium]
inhibition of carnitine palmitoyltransferase (CPT): potently inhibits
